Experimental data as given in patent publication US20120308554A1, “VEGF-D/VEGFR2/3-MEDIATED REGULATION OF DENDRITES” (UNIVERSITAT HEIDELBERG, priority 2011, published 2012).

Tests used:
hippocampal cultures = assay: MEA recordings of spontaneous network activity; assay type: cell-based, mice; settings: infected cultures versus rAAV-shSCR or rAAV-emptymC
Experimental: MEA recordings were done as known in the art. From DIV7 to DIV13, recordings of spontaneous network activity were acquired for 5 min once per day.

CA1 pyramidal neurons = assay: Golgi staining-based morphometric analysis of CA1 neurons after stereotaxic rAAV delivery; assay type: in vivo, C57BL/6 mice; settings: CA1 basal dendrites, 2.5 weeks after viral gene delivery
Experimental: rAAVs were delivered by stereotaxic injection into the right dorsal hippocampus of 2 months old male C57BL/6 mice. For the Golgi staining-based morphometric analysis, viral particles were unilaterally injected over a period of 20 min at the following coordinates relative to Bregma: anteroposterior, −2.1 mm; mediolateral, −1.4 mm; dorsoventral, −1.4 to −1.8 mm from the skull surface. For behavior experiments mice were injected bilaterally.
(§1) For 3D Sholl Analysis, total dendritic length and spine morphology were calculated using Object-Image freeware software with a specific set of macros (written by Dr. E. Ruthazer, McGill University, Quebec). Briefly, a z-Stack acquisition was imported, calibrated in Object-Image and manually traced. Total dendritic length was then computed. For Sholl analysis, the shell interval was set at 5 μm. All analyses were performed blind. In all in vitro experiments, for each condition, a minimum of 12 neurons from three independent preparations was analyzed. For the Golgi staining quantifications of 20 neurons for each condition from 4 different injected animals per viral construct were traced and analyzed.
Golgi impregnation was performed using a Rapid Golgi Stain Kit (FD Neuro Technologies) according to the manufacturer's protocol. […]

hippocampal neurons = assay: Morphometric analyses (total dendritic length, Sholl analysis, spine density) of cultured hippocampal neurons; assay type: cell-based, mice
Experimental: Hippocampal neurons from newborn C57BL/6 mice were cultured as known in the art. Experiments were done after a culturing period of 10 to 14 days in vitro (DIV). DNA transfection was done on DIV8 using Lipofectamine 2000 (Invitrogen, San Diego, Calif.). For the studies on dendrite morphology, neurons were analyzed 4-5 days after transfection.
as §1
Hippocampal neurons were fixed with 4% paraformaldehyde at room temperature for 20 min. For immunostaining, primary and secondary antibodies were applied in GDB buffer (30 mM phosphate buffer [pH7.4] containing 0.2% gelatin, 0.5% Triton X-100, and 0.9 M NaCl). For the morphometric analyses, fluorescence images were acquired using a confocal laser-scanning microscope TCS SP2 (Leica, Mannheim, Germany) equipped with an inverted fluorescence microscope DM IRE2 (Leica) and Leica confocal scan software. All images were obtained with sequential acquisition setting at a resolution of 1024×1024 pixels. Each image was a z series projection of images taken at 1 μm intervals.

VEGFD = assay: Immunoblot analysis of VEGFD expression in hippocampal neurons; assay type: cell-based, mice; settings: hippocampal neurons infected with rAAV
Description: C: Immunoblot analysis of VEGFD expression in uninfected hippocampal neurons and in hippocampal neurons infected with the indicated rAAVs. Tubulin was used for loading control. Neurons infected with rAAV-emptymC, rAAV-shVEGFD and rAAV-shSCR were detected by DsRed immunostaining (see above).
Mouse monoclonal antibody to tubulin (Sigma); mouse monoclonal NeuN antibody (Chemicon); mouse monoclonal anti-phospho-p38 MAP kinase antibody (BD); rabbit polyclonal antibodies to the HA tag, anti-VEGFD antibodies, anti-VEGFR3 (Santa Cruz); rabbit polyclonal antibody to phosphor-CREB (Upstate-Millipore); rabbit polyclonal antibody to phosphor-CaMKII (Promega); rabbit polyclonal antibodies to phosphor-MSK1, phosphor-ATF2, phosphor-ERK, phosphor-Akt, phosphor-MKK4, phosphor-JNK, phosphor-p70, phosphor-GSKα/β (Cell Signaling). Rabbit polyclonal antibodies to DsRed (Clontech). AlexaFluor 488-, AlexaFluor 594-, and AlexaFluor 633-labled secondary antibodies were from Molecular Probes (Eugene, Oreg., USA).

Substance: shVEGFD: shRNA targeting mouse VEGFD mRNA (GGGCTTCAGGAGCGAACAT; SEQ ID NO: 1), expressed from rAAV vector or plasmid with U6 promoter
- spike frequencies (hippocampal cultures): reduced
- total length of dendrites and their complexity in vivo (CA1 pyramidal neurons): reduced both the total length of dendrites and their complexity
- total dendritic length and dendritic complexity (Sholl analysis) (hippocampal neurons; neurons expressing the construct versus control constructs): less complex dendritic arbor and a reduction in total dendritic length
- spine density (number of spines/20 μm) (hippocampal neurons; transfected hippocampal neurons): 6.52±0.51 spines/20 μm
- VEGFD protein expression (immunoblot) (VEGFD): blocked VEGFD protein expression
